{
  "source": "patent US7572903B1",
  "about": "“Method of regulation of bacterial persister status” (priority 2005, dated 2009)",
  "type_in_all_cases": "cell-based, Escherichia coli",
  "key": {"[1]": {"test_system": "E. coli K-12 C600::mTn5gusA-pgfp21", "settings": "mid-log phase", "description": "In the latter set of experiments reaction mixtures included nutrient broth (25% normal strength) in order to facilitate growth during the exposure. […] At various time intervals samples (0.1 mL) were removed and serially diluted either in sterile phosphate buffered saline (pH 7, 0.1M) or lecithin (2% w/v)—tween 80 (3% w/v) broth as a specific neutralizer of quaternary ammonium biocides (Wright, et al., J. App. Bacterial. 62:309-314, 1986). Samples of appropriate dilutions were plated, in triplicate, onto nutrient agar and colonies counted after 16 hour incubation at 37° C. Survival was expressed relative to untreated control suspensions.\n(§1) When cells were required for culture and/or susceptibility determinations collections were made of discrete fractions of cells within the upper 1 and 5%, and the lower 1, 5 and 10% of fluorescence intensity. Control populations consisted of the entire population of cells having been passed through the cytometer and sorter. Cell sort rates of circa 10^3/sec were deployed enabling collection of circa 10^4-5 cfu within 10 minutes. Cell concentrations were adjusted from the cytometer count by dilution with fresh PBS. Suspensions of collected cells were used immediately for microbiological analysis.\nCollections of poorly fluorescent cells from mid-log phase cultures were made and susceptibility re-determined towards tetradecylbenzalkonium chloride, and towards various other treatment agents."}, "[2]": {"test_system": "E. coli CC118 overexpression and suppression mutants", "experiment": "Antimicrobial susceptibility of conditional overexpression and antisense suppression strains (cetrimide challenge)", "settings": "relative to parental E. coli CC118, 9 μg/ml cetrimide 1 h", "description": "Conditional overexpression and anti-sense suppression strains of E. coli (Table 14) were grown as liquid cultures in nutrient broth. Expression of target sense and antisense sequences was induced by addition of IPTG (Bioline), during early exponential phase, to a final concentration of 0.1 mM. Cells were grown until mid-late exponential (1.75 h after IPTG addition) or to stationary phase (14.5 h after ITPG addition), and harvested by centrifugation (10,000 x g, 10 min) at 4° C. The supernatants were decanted and the pellets suspended into equal volumes of PBS. The centrifugation and washing steps were repeated twice, after which the pellets were re-suspended in PBS to an optical density (OD470 nm) of 1.0, corresponding to approximately 1-2×10^8 cfu/ml mid-exponential or stationary phase cells.\nCells were exposed to 9 μg/ml cetrimide USP for 1 hr in PBS with final concentration of 5×10^7 cells/ml. Controls without the addition of the biocide containing the same concentration of cells and PBS were run in parallel. Following incubation samples (0.1 ml) were removed and serially diluted in lecithin (2% w/v)—tween 80 (3% w/v) broth as a specific neutralizer of quaternary ammonium biocides (Wright, et al., J. Appd. Bacteriol, 62, 309-314, 1986). Samples of appropriate dilutions were plated, in triplicate, onto nutrient agar and colonies counted after 16 h incubation at 37° C. Survival was expressed relative to untreated control suspensions that were similarly treated with IPTG. […] The susceptibility of the parental strain E. coli (CC118 towards cetrimide USP was investigated in the same experiments and was used as a reference to determine the effect of overexpression and antisense suppression of target sequences."}, "[3]": {"test_system": "E. coli K-12 C600::mTn5gusA-pgfp21 intergenic knockouts", "experiment": "Susceptibility of putative intergenic knockouts towards cetrimide USP", "source_text": "Intergenic knockouts were made to E. coli K-12 C600::mTn5gusA-pgfp21 with respect to IG216, IG477, IG870, IG873, IG1602, IG1604 and IG1484 using the protocol described by Datsenko, et al. (Proceedings of the National Academy of Sciences of the United States of America 97, 6640-6645, 2000). Plasmid pKD3 was used as a template to generate PCR products with a selectable antibiotic resistance marker (chloramphenicol) and 40 nt homology extensions relating the genes flanking each targeted intergenic region. Modifications of the method included a 10-fold increase in the concentration of L-arabinose (10 mM) for induction of λ Red genes in the helper plasmid pKD46, and 50-fold increases in the amount of PCR product (500 ng) used to transform E. coli K-12 C600 containing pKD46. Further amendments to the method were associated with recovery of transformants following electroporation. […]\nPutative intergenic knockouts were grown as liquid culture in nutrient broth, harvested at mid-exponential phase, washed in PBS as described in section 2.1 (a) and adjusted to 1×10^5 cfu/ml in PBS. […] The viability of cells in the antimicrobial and control tubes was monitored after 1 hour incubation at 37° C. at 200 rpm in an orbital shaker. […]"}, "[4]": {"test_system": "E. coli K-12 C600::mTn5gusA-pgfp21", "experiment": "Time-dependent survival of FACS-sorted fractions exposed to tetradecylbenzalkonium chloride", "description": "In the latter set of experiments reaction mixtures included nutrient broth (25% normal strength) in order to facilitate growth during the exposure. This was necessary in order to get adequate killing by β-lactam antibiotics. At various time intervals samples (0.1 mL) were removed and serially diluted either in sterile phosphate buffered saline (pH 7, 0.1M) or lecithin (2% w/v)—tween 80 (3% w/v) broth as a specific neutralizer of quaternary ammonium biocides (Wright, et al., J. App. Bacterial. 62:309-314, 1986). Samples of appropriate dilutions were plated, in triplicate, onto nutrient agar and colonies counted after 16 hour incubation at 37° C. Survival was expressed relative to untreated control suspensions.\nas §1\nThe FACS vantage was also deployed to separate populations of cells, from stationary phase cultures, corresponding to the lower (1, 5 and 10%) fluorescence intensity cells and the upper (1 and 5%) fluorescence intensity cells (FIG. 1). These cells were immediately subjected to exposure to tetradecyl-benzalkonium chloride (3.68 μg/mL) for various times up to 20 minutes. After neutralization in lecithin-tween 80 broth the numbers of surviving cells was determined by plate count. In all instances the shapes of the survival curves were non-linear indicating an initial rapid phase of killing followed by a plateau phase. […] Survival beyond 10 minutes exposure therefore reflected the presence of non-susceptible cells."}},
  "note": "Read-outs that look alike come from different tables or passages of the source. Bridge positions count the residues as written; N and C are the ends. Square brackets hold non-standard residues; d marks the D form. Peptide text beside a SMILES is read from it. * marks the point of attachment. Ileψ(thiazoline)Cys = CC[C@H](C)[C@H](N)C1=N[C@H](C(=O)*)CS1; dOrn = NCCC[C@@H](N)C(=O)O",
  "data": [
    {"molecule": "O=C(O)c1cn(C2CC2)c2cc(N3CCNCC3)c(F)cc2c1=O", "note": "[Ciprofloxacin, ciprofloxacin]", "values": [
      {"measurement": "percentage survival relative to untreated controls", "setting": "[1]; 0-5% FI fraction, ciprofloxacin 0.05 μg/ml, 1 hour, SD in parenthesis", "result": "44 (2.0) %"},
      {"measurement": "percentage survival relative to untreated controls", "setting": "[1]; 95-100% FI fraction, ciprofloxacin 0.05 μg/ml, 1 hour, SD in parenthesis", "result": "35 (3.6) %"},
      {"measurement": "percentage survival relative to untreated controls", "setting": "[1]; Control 0-100% fluorescence fraction, ciprofloxacin 0.05 μg/ml, 1 hour, SD in parenthesis", "result": "40 (0) %"}
    ]},
    {"molecule": "cetrimide [Cetrimide USP]", "values": [
      {"measurement": "percentage survival relative to untreated controls", "setting": "[1]; 0-5% FI fraction, cetrimide USP 0.5 μg/ml, 1 hour, SD in parenthesis", "result": "22 (3.7) %"},
      {"measurement": "percentage survival relative to untreated controls", "setting": "[1]; 95-100% FI fraction, cetrimide USP 0.5 μg/ml, 1 hour, SD in parenthesis", "result": "2.5 (0.97) %"},
      {"measurement": "percentage survival relative to untreated controls", "setting": "[1]; Control 0-100% fluorescence fraction, cetrimide USP 0.5 μg/ml, 1 hour, SD in parenthesis", "result": "18 (3.4) %"},
      {"measurement": "Fold Change in persister fraction (fold increase)", "setting": "[2]; strain lit (+), exponential phase, IPTG 0.1 mM 1.75 h", "result": 3.05, "unit": "fold"},
      {"measurement": "Fold Change in persister fraction (fold increase)", "setting": "[2]; strain lit (−), exponential phase, IPTG 0.1 mM 1.75 h", "result": 1.31, "unit": "fold"},
      {"measurement": "Fold Change in persister fraction (fold decrease)", "setting": "[2]; strain lit (−), stationary phase, IPTG 0.1 mM 14.5 h", "result": 4.08, "unit": "fold decrease"},
      {"measurement": "Fold Change in persister fraction (fold increase)", "setting": "[2]; strain mcrA (+), exponential phase, IPTG 0.1 mM 1.75 h", "result": 2.82, "unit": "fold"},
      {"measurement": "Fold Change in persister fraction (fold increase)", "setting": "[2]; strain pin (+), exponential phase, IPTG 0.1 mM 1.75 h", "result": 10.38, "unit": "fold"},
      {"measurement": "Fold Change in persister fraction (fold increase)", "setting": "[2]; strain pin (−), exponential phase, IPTG 0.1 mM 1.75 h", "result": 18.98, "unit": "fold"},
      {"measurement": "Fold Change in persister fraction", "setting": "[2]; strain pin (−), stationary phase, IPTG 0.1 mM 14.5 h", "result": "No persisters detected"},
      {"measurement": "Fold Change in persister fraction (fold decrease)", "setting": "[2]; strain yagL (+), exponential phase, IPTG 0.1 mM 1.75 h", "result": 1.01, "unit": "fold"},
      {"measurement": "Fold Change in persister fraction (fold increase)", "setting": "[2]; strain ykgK (+), exponential phase, IPTG 0.1 mM 1.75 h", "result": 22.85, "unit": "fold"},
      {"measurement": "Fold Change in persister fraction (fold decrease)", "setting": "[2]; strain ykgK (−), exponential phase, IPTG 0.1 mM 1.75 h", "result": 5.35, "unit": "fold"},
      {"measurement": "Fold Change in persister fraction", "setting": "[2]; strain ykgK (−), stationary phase, IPTG 0.1 mM 14.5 h", "result": "No persisters detected"},
      {"measurement": "Fold Change in persister fraction (fold decrease)", "setting": "[2]; strain ykgM (+), exponential phase, IPTG 0.1 mM 1.75 h", "result": 1.65, "unit": "fold"},
      {"measurement": "Fold Change in persister fraction (fold decrease)", "setting": "[2]; strain ykgM (−), exponential phase, IPTG 0.1 mM 1.75 h", "result": 1.83, "unit": "fold"},
      {"measurement": "Fold Change in persister fraction", "setting": "[2]; strain ykgM (−), stationary phase, IPTG 0.1 mM 14.5 h", "result": "No persisters detected"},
      {"measurement": "susceptibility of intergenic knockout clones compared with controls", "setting": "[3]; IG216, IG873, IG1484 and IG1602 knockouts, at both the lower and higher treatment level", "result": "profoundly changed"},
      {"measurement": "susceptibility of intergenic knockout clones compared with controls", "setting": "[3]; all developed clones (IG216, IG477, IG870, IG873, IG1602, IG1604, IG1484), 0.6 and 2.0 μg/ml, 1 hour", "result": "substantially reduced"}
    ]},
    {"molecule": "NCC[C@H](O)C(=O)N[C@@H]1C[C@H](N)[C@@H](O[C@H]2O[C@H](CN)[C@@H](O)[C@H](O)[C@H]2O)[C@H](O)[C@H]1O[C@H]1O[C@H](CO)[C@@H](O)[C@H](N)[C@H]1O", "note": "[Amikacin, amikacin]", "values": [
      {"measurement": "percentage survival relative to untreated controls", "setting": "[1]; 0-5% FI fraction, amikacin 0.75 μg/ml, 1 hour, SD in parenthesis", "result": "68 (17) %"},
      {"measurement": "percentage survival relative to untreated controls", "setting": "[1]; 95-100% FI fraction, amikacin 0.75 μg/ml, 1 hour, SD in parenthesis", "result": "32 (0) %"},
      {"measurement": "percentage survival relative to untreated controls", "setting": "[1]; Control 0-100% fluorescence fraction, amikacin 0.75 μg/ml, 1 hour, SD of triplicate in parenthesis", "result": "39 (3.0) %"}
    ]},
    {"molecule": "CC[C@H](C)[C@H](N)C1=N[C@H](C(=O)N[C@@H](CC(C)C)C(=O)N[C@H](CCC(=O)O)C(=O)N[C@H](C(=O)N[C@H]2CCCCNC(=O)[C@H](CC(N)=O)NC(=O)[C@@H](CC(=O)O)NC(=O)[C@H](Cc3cnc[nH]3)NC(=O)[C@@H](Cc3ccccc3)NC(=O)[C@H]([C@@H](C)CC)NC(=O)[C@@H](CCCN)NC2=O)[C@@H](C)CC)CS1", "note": "[Bacitracin, bacitracin] ({Ileψ(thiazoline)Cys}-L[dE]IK[dOrn]I[dF]H[dD]N; lactam 4-C)", "values": [
      {"measurement": "percentage survival relative to untreated controls", "setting": "[1]; 0-5% FI fraction, bacitracin 0.7 mg/ml, 40 min, SD in parenthesis", "result": "83 (1.5) %"},
      {"measurement": "percentage survival relative to untreated controls", "setting": "[1]; 95-100% FI fraction, bacitracin 0.7 mg/ml, 40 min, SD in parenthesis", "result": "34 (4.6) %"},
      {"measurement": "percentage survival relative to untreated controls", "setting": "[1]; Control 0-100% fluorescence fraction, bacitracin 0.7 mg/ml, 40 min, SD in parenthesis", "result": "57 (8.5) %"}
    ]},
    {"molecule": "Tetradecylbenzalkonium chloride", "values": [
      {"measurement": "proportion of persister cells in the cell fraction", "setting": "[4]; least intensely fluorescent cell fraction (1%), stationary phase, 3.68 μg/mL, exposure up to 20 minutes", "result": "> 80", "unit": "%"},
      {"measurement": "survival of cells", "setting": "[4]; most fluorescently intense cells, stationary phase, 3.68 μg/mL, after 1 minute exposure", "result": "eradicated beyond detection"},
      {"measurement": "proportion of persisters in mid-log phase compared with stationary phase", "setting": "[4]; poorly fluorescent cells from mid-log phase cultures", "result": "substantially reduced"}
    ]}
  ]
}
